Assay results taken from patent US11173145B2, “Compounds useful as inhibitors of indoleamine 2,3-dioxygenase and/or tryptophan dioxygenase” (Board of Regents, The University of Texas System, priority 2017, dated 2021).

Target: T1, IDO1 (Homo sapiens, UniProt P14902)
T1 construct: endogenous in cells; host or cells: HeLa cells (ATCC), IFNgamma-induced
Test: IDO1 cell-based assay (HeLa cells, IFNgamma-induced, N-formylkynurenine/L-tryptophan by RFMS)
Conditions: 10 ng/mL IFNgamma, 24 hours
Description: HeLa cells were obtained from the American Type Culture Collection (ATCC) and maintained in DMEM media containing 10% FBS. Cells (7,000/well) were seeded onto a 384 well plate in 50 μL of media and incubated at 37° C., 5% CO2 overnight. Cell media was aspirated, fresh media containing 10 ng/mL IFNgamma was added, and cells were incubated in absence or presence of various concentrations of test compound (final 0.5% DMSO) for 24 hours. Aliquots of the cell conditioned media were removed from the cell plate, and mixed with an equal volume of 200 mM ZnSO4 to precipitate media containing proteins. Two volumes of acetonitrile were added, mixed, and samples were then centrifuged at 2250G for 20 minutes at 4° C. Aliquots of the supernatant were diluted 1:10 in 0.1% formic acid containing 3 μM of deuterated Tryptophan as an internal standard.
Samples were analyzed via RFMS to quantify N-Formyl Kynurenine (AUC) and L-tryptophan (AUC). A C18 cartridge was used with mobile phases of 0.1% Formic Acid and 80% ACN/0.1% Formic Acid under isocratic conditions. Dose-response curves were analyzed using IC50 regression curve fitting (GeneData Screener). […] Cell viability was also assessed using the Cell Titer Glo Kit (Promega) following manufacturer recommendation.

T1 sequence (P14902 whole entry): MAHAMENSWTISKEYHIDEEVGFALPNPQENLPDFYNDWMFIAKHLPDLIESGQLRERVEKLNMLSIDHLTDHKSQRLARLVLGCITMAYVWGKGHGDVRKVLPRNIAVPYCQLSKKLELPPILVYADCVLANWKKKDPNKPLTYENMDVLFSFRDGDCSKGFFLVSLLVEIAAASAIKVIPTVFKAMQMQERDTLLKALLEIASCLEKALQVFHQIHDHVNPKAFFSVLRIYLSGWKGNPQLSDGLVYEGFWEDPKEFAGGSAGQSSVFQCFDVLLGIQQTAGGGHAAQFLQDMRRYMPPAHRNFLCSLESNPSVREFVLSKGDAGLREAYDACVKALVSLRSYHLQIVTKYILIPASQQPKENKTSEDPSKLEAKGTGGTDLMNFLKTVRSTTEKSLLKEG

Compound | IC50
CCC(NC(=O)c1ccc(Cl)cc1)[C@H]1[C@@H]2C[C@H](O)C[C@@H]21 (stereo partly drawn) [Compound 1, 4-chloro-N-(1-((1R,3r,5S,6r)-3-hydroxybicyclo[3.1.0]hexan-6-yl)propyl)benzamide] | 2000 to 5000 nM
CCC(NC(=O)c1ccc(Cl)cc1)[C@H]1[C@@H]2C[C@@H](N3C(=O)C(=O)c4ccccc43)C[C@@H]21 (stereo partly drawn) [Compound 114, 4-chloro-N-(1-((1R,3s,5S,6r)-3-(2,3-dioxoindolin-1-yl)bicyclo[3.1.0]hexan-6-yl)propyl)benzamide] | 200 to 2000 nM
O=C(NC1C2CC(Oc3ccnc4ccccc34)CC21)c1ccc(Cl)cc1 (stereo not drawn) [Compound 26, 4-chloro-N-(3-(quinolin-4-yloxy)bicyclo[3.1.0]hexan-6-yl)benzamide] | 200 to 2000 nM
CCC(NC(=O)c1ccc(Cl)cc1)[C@H]1[C@@H]2C[C@@H](NC(=O)c3cccnn3)C[C@@H]21 (stereo partly drawn) [Compound 151, N-((1R,3s,5S,6r)-6-(1-(4-chlorobenzamido)propyl)bicyclo[3.1.0]hexan-3-yl)pyridazine-3-carboxamide] | < 200 nM
CCC(NC(=O)c1ccc(Cl)cc1)[C@H]1[C@@H]2C[C@@H](n3nc4ccccc4n3)C[C@@H]21 (stereo partly drawn) [Compound 100, N-(1-((1R,3s,5S,6r)-3-(2H-benzo[d][1,2,3]triazol-2-yl)bicyclo[3.1.0]hexan-6-yl)propyl)-4-chlorobenzamide] | < 200 nM
CCC(NC(=O)c1ccc(Cl)cc1)[C@H]1[C@@H]2C[C@@H](Oc3ncnc4ccccc34)C[C@@H]21 (stereo partly drawn) [Compound 59, 4-chloro-N-(1-((1R,3s,5S,6r)-3-(quinazolin-4-yloxy)bicyclo[3.1.0]hexan-6-yl)propyl)benzamide] | < 200 nM
CC(NC(=O)c1ccc(C#N)cc1)[C@H]1[C@@H]2C[C@@H](NC(=O)c3ccccn3)C[C@@H]21 (stereo partly drawn) [Compound 143, N-((1R,3s,5S,6r)-6-(1-(4-cyanobenzamido)ethyl)bicyclo[3.1.0]hexan-3-yl)picolinamide] | < 200 nM
CCC(NC(=O)c1ccc(Cl)cc1)[C@H]1[C@@H]2C[C@@H](Oc3cccc(C)n3)C[C@@H]21 (stereo partly drawn) [Compound 40, 4-chloro-N-(1-((1R,3s,5S,6r)-3-((6-methylpyridin-2-yl)oxy)bicyclo[3.1.0]hexan-6-yl)propyl)benzamide] | < 200 nM
CCC(NC(=O)c1ccc(Cl)cc1)[C@H]1[C@@H]2C=CC[C@@H]21 (stereo partly drawn) [Compound 113, N-(1-((1R,5S,6R)-bicyclo[3.1.0]hex-2-en-6-yl)propyl)-4-chlorobenzamide] | 200 to 2000 nM
CCC(NC(=O)c1ccc(Cl)cc1)[C@H]1[C@@H]2C[C@@H](N3C(=O)CC(C)(C)C3=O)C[C@@H]21 (stereo partly drawn) [Compound 122, 4-chloro-N-(1-((1R,3s,5S,6r)-3-(3,3-dimethyl-2,5-dioxopyrrolidin-1-yl)bicyclo[3.1.0]hexan-6-yl)propyl)benzamide] | 2000 to 5000 nM
CCC(NC(=O)c1ccc(Cl)cc1)[C@H]1[C@@H]2C[C@@H](n3cnc4cc(Cl)ccc43)C[C@@H]21 (stereo partly drawn) [Compound 272, 4-chloro-N-(1-((1R,3s,5S,6r)-3-(5-chloro-1H-benzo[d]imidazol-1-yl)bicyclo[3.1.0]hexan-6-yl)propyl)benzamide] | < 200 nM
O=C(Cc1ccc(Cl)cc1)NC1[C@H]2CC(Oc3ccnc4ccccc34)C[C@@H]12 (stereo partly drawn) [Compound 30, 2-(4-chlorophenyl)-N-((1R,5S)-3-(quinolin-4-yloxy)bicyclo[3.1.0]hexan-6-yl)acetamide] | < 200 nM
O=C(Nc1ccc(Cl)cc1)C1[C@H]2CC(Oc3ccnc4ccccc34)C[C@@H]12 (stereo partly drawn) [Compound 8, (1R,5S)-N-(4-chlorophenyl)-3-(quinolin-4-yloxy)bicyclo[3.1.0]hexane-6-carboxamide] | 2000 to 5000 nM
CCC(NC(=O)c1ccc(Cl)cc1)[C@H]1[C@@H]2C[C@@H](Nc3ncnc4ccc(F)cc34)C[C@@H]21 (stereo partly drawn) [Compound 123, 4-chloro-N-(1-((1R,3s,5S,6r)-3-((6-fluoroquinazolin-4-yl)amino)bicyclo[3.1.0]hexan-6-yl)propyl)benzamide] | < 200 nM
O=C(NC(CCO)[C@H]1[C@@H]2C[C@@H](Oc3ncnc4ccc(F)cc34)C[C@@H]21)c1ccc(Cl)cc1 (stereo partly drawn) [Compound 137, 4-chloro-N-(1-((1R,3s, 5S, 6r)-3-((6-fluoroquinazolin-4-yl)oxy)bicyclo[3.1.0]hexan-6-yl)-3-hydroxypropyl)benzamide] | 2000 to 5000 nM
CCC(NC(=O)c1ccc(Cl)cc1)[C@H]1[C@@H]2C[C@@H](n3nncc3C(C)(C)O)C[C@@H]21 (stereo partly drawn) [Compound 154, 4-chloro-N-(1-((1R,3s,5S,6r)-3-(5-(2-hydroxypropan-2-yl)-1H-1,2,3-triazol-1-yl)bicyclo[3.1.0]hexan-6-yl)propyl)benzamide] | < 200 nM
COc1ccc(C(=O)NC(C)[C@H]2[C@@H]3C[C@@H](Oc4ncnc5cc(F)ccc45)C[C@@H]32)cn1 (stereo partly drawn) [Compound 124, N-(1-((1R,3s,5S,6r)-3-((7-fluoroquinazolin-4-yl)oxy)bicyclo[3.1.0]hexan-6-yl)ethyl)-6-methoxynicotinamide] | < 200 nM
CCC(NC(=O)c1ccc(Cl)cc1)[C@H]1[C@@H]2C[C@@H](NS(C)(=O)=O)C[C@@H]21 (stereo partly drawn) [Compound 159, 4-chloro-N-(1-((1R,3s,5S,6r)-3-(methylsulfonamido)bicyclo[3.1.0]hexan-6-yl)propyl)benzamide] | 200 to 2000 nM
O=C(NC1C2CN(c3ccnc4ccc(F)cc34)CC21)C(CO)c1ccccc1 (stereo not drawn) [Compound 110, N-(3-(6-fluoroquinolin-4-yl)-3-azabicyclo[3.1.0]hexan-6-yl)-3-hydroxy-2-phenylpropanamide] | > 5000 nM
CCC(NC(=O)c1ccc(Cl)cc1)[C@H]1[C@@H]2C[C@@H](Oc3cnnc4ccccc34)C[C@@H]21 (stereo partly drawn) [Compound 138, 4-chloro-N-(1-((1R,3r,5S,6r)-3-(cinnolin-4-yloxy)bicyclo[3.1.0]hexan-6-yl)propyl)benzamide] | < 200 nM

The next lines start with the values.

IC50 | Compound
200 to 2000 nM | CC[C@@H](NC(=O)c1ccc(C#N)cc1)[C@H]1[C@@H]2C[C@@H](n3cc(C4CCOC4)nn3)C[C@@H]21 (stereo partly drawn) [Compound 295, 4-cyano-N-((1R)-1-((1R,3S,5S,6r)-3-(4-(tetrahydrofuran-3-yl)-1H-1,2,3-triazol-1-yl)bicyclo[3.1.0]hexan-6-yl)propyl)benzamide]
< 200 nM | CC[C@@H](NC(=O)c1ccc(C#N)cc1)[C@H]1[C@@H]2C[C@@H](n3nnc(C(=O)OC)c3C(=O)OC)C[C@@H]21 [Compound 300, dimethyl 1-((1R,3S,5S,6r)-6-((R)-1-(4-cyanobenzamido)propyl)bicyclo[3.1.0]hexan-3-yl)-1H-1,2,3-triazole-4,5-dicarboxylate]
200 to 2000 nM | CC[C@@H](NC(=O)c1ccc(C#N)cc1)[C@H]1[C@@H]2C[C@@H](n3c(C)nc4ccc(C#N)cc43)C[C@@H]21 [Compound 293, 4-cyano-N-((R)-1-((1R,3S,5S,6r)-3-(6-cyano-2-methyl-1H-benzo[d]imidazol-1-yl)bicyclo[3.1.0]hexan-6-yl)propyl)benzamide]
< 200 nM | CC[C@@H](NC(=O)c1ccc(Cl)cc1)[C@H]1[C@@H]2C[C@@H](n3cc(C(=O)OC)cn3)C[C@@H]21 [Compound 326, methyl 1-((1R,3S,5S,6r)-6-((R)-1-(4-chlorobenzamido)propyl)bicyclo[3.1.0]hexan-3-yl)-1H-pyrazole-4-carboxylate]
200 to 2000 nM | O=C(NC[C@@H]1[C@H]2C[C@H](n3cnc4cc(F)c(F)cc43)C[C@@H]12)c1cccc(Cl)c1 [Compound 316, 3-chloro-N-(((1R,3s,5S,6r)-3-(5,6-difluoro-1H-benzo[d]imidazol-1-yl)bicyclo[3.1.0]hexan-6-yl)methyl)benzamide]
200 to 2000 nM | CC[C@@H](NC(=O)c1ccc(Cl)cc1)[C@H]1[C@@H]2C[C@@H](n3c(C(F)(F)F)nc4ccc(F)cc43)C[C@@H]21 [Compound 276, 4-chloro-N-((R)-1-((1R,3S,5S,6r)-3-(6-fluoro-2-(trifluoromethyl)-1H-benzo[d]imidazol-1-yl)bicyclo[3.1.0]hexan-6-yl)propyl)benzamide]
200 to 2000 nM | CC[C@@H](NC(=O)NC1CC1)[C@H]1[C@@H]2C[C@@H](n3cnc4cc(F)c(F)cc43)C[C@@H]21 [Compound 357, 1-cyclopropyl-3-((R)-1-((1R,3S,5S,6r)-3-(5,6-difluoro-1H-benzo[d]imidazol-1-yl)bicyclo[3.1.0]hexan-6-yl)propyl)urea]
200 to 2000 nM | COc1ccc(C(=O)NC[C@@H]2[C@H]3C[C@H](n4cnc5cc(F)c(F)cc54)C[C@@H]23)cn1 [Compound 318, N-(((1R,3s,5S,6r)-3-(5,6-difluoro-1H-benzo[d]imidazol-1-yl)bicyclo[3.1.0]hexan-6-yl)methyl)-6-methoxynicotinamide]
> 5000 nM | CC[C@@H](NC(=O)NC1COC1)[C@H]1[C@@H]2C[C@@H](n3cnc4cc(F)c(F)cc43)C[C@@H]21 [Compound 353, 1-((R)-1-((1R,3S,5S,6r)-3-(5,6-difluoro-1H-benzo[d]imidazol-1-yl)bicyclo[3.1.0]hexan-6-yl)propyl)-3-(oxetan-3-yl)urea]
> 5000 nM | Cn1cc(C(=O)NC[C@@H]2[C@H]3C[C@H](n4cnc5cc(F)c(F)cc54)C[C@@H]23)cn1 [Compound 319, N-(((1R,3s,5S,6r)-3-(5,6-difluoro-1H-benzo[d]imidazol-1-yl)bicyclo[3.1.0]hexan-6-yl)methyl)-1-methyl-1H-pyrazole-4-carboxamide]
